Reference: paper PMC3522424 (Vaccine, 2012)

Tested on: PBMCs from HIV-infected HLA-A2-positive subjects
Assay: IFNγ ELISpot with PBMCs from HIV-infected HLA-A2 subjects
Details: for % donors responding positively in ELISpots: Providence and Mali donors together; for IFNγ ELISpot response, donor 0015404: A02, A0285, A0286; for IFNγ ELISpot response, donor 0015299 / IFNγ ELISpot response, donor 0018349: A0208; for IFNγ ELISpot response, donor 0015269: A0209, A0231; for IFNγ ELISpot response, donor H_0912: HLA-A A0201; for IFNγ ELISpot response, donor H_0865: HLA-A A02011
[1] = cohort #3 Bamako, Mali, positive donors / 8 donors
[2] = cohort #3 Bamako, Mali, peptide 10 μg/ml, overnight 37°C
[3] = cohort #1 Providence, positive donors / 16 donors
[4] = cohort #1 Providence, peptide 10 μg/ml, overnight 37°C

Sequence | % donors responding positively in ELISpots (peptide 10 μg/ml) | Total responses per epitope [1] | IFNγ ELISpot response, donor 0015404 [2] | IFNγ ELISpot response, donor 0015299 [2] | IFNγ ELISpot response, donor 0018349 [2] | IFNγ ELISpot response, donor 0015269 [2] | Subjects with a positive response (cohort #2 Providence, eight subjects) | Total responses per epitope (cohort #2 Providence, positive donors / 8 donors) | IFNγ ELISpot response, donor 0517001 (cohort #2 Providence, A2, A3, B44, Cw05, Cw07, peptide 10 μg/ml, overnight 37°C) | IFNγ ELISpot response, donor 0902991 (cohort #2 Providence, A2, A30, B39, peptide 10 μg/ml, overnight 37°C) | Total responses per epitope [3] | IFNγ ELISpot response, donor H_0912 [4] | IFNγ ELISpot response, donor H_0854 (cohort #1 Providence, HLA-A A02011, A3401, peptide 10 μg/ml, overnight 37°C) | IFNγ ELISpot response, donor H_0865 [4] | IFNγ ELISpot response, stated in words (PBMCs from HIV-1-infected HLA-A2 subjects, Providence and/or Bamako as stated) | IFNγ ELISpot response, donor H_0836 (cohort #1 Providence, HLA-A A02011, A2901, peptide 10 μg/ml, overnight 37°C)
WLWYIKIFI [Peptide 3002] | 12.5% | 1/8 | 63 spots per 10^6 PBMCs | - (ELISpot responses that fall below this cutoff point are indicated with a dash mark) | - (ELISpot responses that fall below this cutoff point are indicated with a dash mark) | - (ELISpot responses that fall below this cutoff point are indicated with a dash mark) | – | – | – | – | – | – | – | – | – | –
ILKEPVHGVY [Peptide 1249] | – | – | – | – | – | – | 37.5% | 3/8 | 117 spots per 10^6 PBMCs | 2380 spots per 10^6 PBMCs | – | – | – | – | – | –
PLQLPPLERL [Peptide 2004] | 50.0% | 4/8 | 59 spots per 10^6 PBMCs | 36 spots per 10^6 PBMCs | 37 spots per 10^6 PBMCs | - (ELISpot responses that fall below this cutoff point are indicated with a dash mark) | – | – | – | – | – | – | – | – | – | –
GIKPVVSTQL [Peptide 1001] | 20.8% | 3/8 | 111 spots per 10^6 PBMCs | 53 spots per 10^6 PBMCs | 37 spots per 10^6 PBMCs | - (ELISpot responses that fall below this cutoff point are indicated with a dash mark) | – | – | – | – | 2/16 | 903 spots per 10^6 PBMCs | 75 spots per 10^6 PBMCs | - (ELISpot responses that fall below this cutoff point are indicated with a dash mark) | – | –
RLEPWKHPG [Peptide 1017] | 6.3% | – | – | – | – | – | – | – | – | – | 1/16 | 29 spots per 10^6 PBMCs | – | - (ELISpot responses that fall below this cutoff point are indicated with a dash mark) | – | –
SAEPVPLQL [Peptide 2003] | 50.0% | 4/8 | 50 spots per 10^6 PBMCs | 25 spots per 10^6 PBMCs | 25 spots per 10^6 PBMCs | - (ELISpot responses that fall below this cutoff point are indicated with a dash mark) | – | – | – | – | – | – | – | – | – | –
DIQKLVGKL [Peptide 1010] | 6.3% | – | – | – | – | – | – | – | – | – | 1/16 | - (ELISpot responses that fall below this cutoff point are indicated with a dash mark) | – | - (ELISpot responses that fall below this cutoff point are indicated with a dash mark) | elicited IFNγ ELISpot responses | 64 spots per 10^6 PBMCs
RTLNAWVKV [Peptide 3003] | 25.0% | 2/8 | 43 spots per 10^6 PBMCs | - (ELISpot responses that fall below this cutoff point are indicated with a dash mark) | - (ELISpot responses that fall below this cutoff point are indicated with a dash mark) | - (ELISpot responses that fall below this cutoff point are indicated with a dash mark) | – | – | – | – | – | – | – | – | – | –
